Paper doi:10.1101/838656v1 (biorxiv, 2019)
Where two headings read alike, the source gives them in different places.

Key:
[1] = biological target: BRD4-BD1 (bromodomain-containing protein 4) (Homo sapiens, UniProt O60885); test: biochemical
in vitro = settings: human, a431 cells
[2] = tested on: HMGA2 (mammalian high mobility group protein AT-hook 2); settings: read-out: Alpha Screen IC50; DNA-binding compound; inhibitor
[3] = tested on: HMGA2 (mammalian high mobility group protein AT-hook 2); settings: read-out: Lance Screen IC50; DNA-binding compound; inhibitor

## Cc1ccc(C(=O)Nc2ccc(S(=O)(=O)O)c3cc(S(=O)(=O)O)cc(S(=O)(=O)O)c23)cc1NC(=O)c1cccc(NC(=O)Nc2cccc(C(=O)Nc3cc(C(=O)Nc4ccc(S(=O)(=O)O)c5cc(S(=O)(=O)O)cc(S(=O)(=O)O)c45)ccc3C)c2)c1 [suramin]
[1]
  IC50: > 100 µM
In vitro
  CC50: > 100 µM

## Nc1ccc(-c2nc3ccc(-c4nc5ccc(N)cc5[nH]4)cc3[nH]2)cc1 [Ro 90-7501]
[1]
  IC50: 16.9 µM
In vitro
  CC50: > 100 µM

## O=C1c2c(O)ccc(O)c2C(=O)c2c(NCCNCCO)ccc(NCCNCCO)c21 [Mitoxantrone]
[1]
  IC50: 0.99 µM
In vitro
  CC50: 1.65 µM
[2]
  IC50: 0.18 µM
[3]
  IC50: 1.77 µM

## COc1cccc2c1C(=O)c1c(O)c3c(c(O)c1C2=O)C[C@@](O)(C(C)=O)C[C@@H]3O[C@H]1C[C@H](NCc2ccc(CN[C@@H]3C[C@@H](O[C@H]4C[C@](O)(C(C)=O)Cc5c(O)c6c(c(O)c54)C(=O)c4c(OC)cccc4C6=O)O[C@H](C)[C@@H]3O)cc2)[C@H](O)[C@H](C)O1 [WP631]
[1]
  IC50: 2.05 µM
In vitro
  CC50: 0.17 µM
[2]
  IC50: 0.044 µM
[3]
  IC50: 0.17 µM

## O=C(O)C1=CC(=C(c2ccc(O)c(C(=O)O)c2)c2ccc(O)c(C(=O)O)c2)C=CC1=O [aurintricarboxylic acid]
[1]
  IC50: 5 µM
In vitro
  CC50: > 100 µM
